Measurements reported in ChEMBL document CHEMBL4706736, “Modulating Androgen Receptor in the Therapeutic Intervention for Prostate Cancer and Kennedy's Disease” (2021).
Where a SMILES comes first, the peptide text is derived from it. [ ]: non-standard residue; d: D form. The star is where a group is joined. X1 = O=C(COc1c(-c2csc(N3CCOCC3)n2)ccc(F)c1F)NCCCCCCN*; X4 = O=C(COc1c(-c2csc(N3CCOCC3)n2)ccc(F)c1F)NCCCCN*; X2 = Fc1ccc(-c2csc(N3CCOCC3)n2)c(OCCOCCOCCN*)c1F; X3 = O=C(NCCCCCCN*)c1cccc2sc(N3CCOCC3)nc12; Dip = N[C@H](C(=O)O)C(c1ccccc1)c1ccccc1; Chg = N[C@H](C(=O)O)C1CCCCC1; NMeA = CN[C@@H](C)C(=O)O

System: CWR22R
Assay: Antiproliferative activity against human 22Rv1 cells assessed as reduction in cell viability at 10 uM incubated for 48 hrs by automated cell counting analysis relative to control
Format: functional

`CN[C@@H](C)C(=O)N[C@H](C(=O)N1Cc2cc(OCCOCCOc3c(-c4csc(N5CCOCC5)n4)ccc(F)c3F)ccc2C[C@H]1C(=O)N[C@@H]1CCCc2ccccc21)C(C)(C)C` and `CN[C@@H](C)C(=O)N[C@H](C(=O)N1Cc2cc(OCCOCCOCCOc3c(-c4csc(N5CCOCC5)n4)ccc(F)c3F)ccc2C[C@H]1C(=O)N[C@@H]1CCCc2ccccc21)C(C)(C)C` cannot be ordered by inhibition at 10 µM: > 50% for the first, > 50% for the second.

`COc1cc(C(=O)NCCOCCOCCOc2c(-c3csc(N4CCOCC4)n3)ccc(F)c2F)ccc1NC(=O)[C@@H]1N[C@@H](CC(C)(C)C)[C@](C#N)(c2ccc(Cl)cc2F)[C@H]1c1cccc(Cl)c1F` and `COc1cc(C(=O)NCCCCNC(=O)COc2c(-c3csc(N4CCOCC4)n3)ccc(F)c2F)ccc1NC(=O)[C@@H]1N[C@@H](CC(C)(C)C)[C@](C#N)(c2ccc(Cl)cc2F)[C@H]1c1cccc(Cl)c1F` cannot be ordered by inhibition at 10 µM: > 50% for the first, > 50% for the second.

Compared with `Cc1ncsc1-c1ccc([C@H](C)NC(=O)[C@@H]2C[C@@H](O)CN2C(=O)[C@@H](NC(=O)CCCCNC(=O)COc2c(-c3csc(N4CCOCC4)n3)ccc(F)c2F)C(C)(C)C)cc1`, `CN[C@@H](C)C(=O)N[C@H](C(=O)N1CCC[C@H]1C(=O)N[C@H](C(=O)NCCCCNC(=O)COc1c(-c2csc(N3CCOCC3)n2)ccc(F)c1F)C(c1ccccc1)c1ccccc1)C1CCCCC1` (H-[NMeA][Chg]P[Dip]-X4) is higher in inhibition at 10 µM: < 50% for the first, > 50% for the second.

`NCCCCCCCCCCNc1cccc2c1C(=O)N(C1CCC(=O)NC1=O)C2=O` (stereo unspecified) and `O=C1CCC(N2C(=O)c3cccc(NCCCCCCNC(=O)c4cn(-c5csc(N6CCOCC6)n5)cn4)c3C2=O)C(=O)N1` (stereo unspecified) cannot be ordered by inhibition at 10 µM: < 50% for the first, 0% for the second.

`CN[C@@H](C)C(=O)N[C@H](C(=O)N1CCC[C@H]1C(=O)N[C@H](C(=O)NCCOCCOCCOc1c(-c2csc(N3CCOCC3)n2)ccc(F)c1F)C(c1ccccc1)c1ccccc1)C1CCCCC1` (H-[NMeA][Chg]P[Dip]-X2) and `CN[C@@H](C)C(=O)N[C@H](C(=O)N1CCC[C@H]1C(=O)N[C@H](C(=O)NCCCCCCNC(=O)COc1c(-c2csc(N3CCOCC3)n2)ccc(F)c1F)C(c1ccccc1)c1ccccc1)C1CCCCC1` (H-[NMeA][Chg]P[Dip]-X1) cannot be ordered by inhibition at 10 µM: > 50% for the first, > 50% for the second.

`CN[C@@H](C)C(=O)N[C@H](C(=O)N1CCC[C@H]1C(=O)N[C@H](C(=O)NCCCCCCNC(=O)c1cccc2sc(N3CCOCC3)nc12)C(c1ccccc1)c1ccccc1)C1CCCCC1` (H-[NMeA][Chg]P[Dip]-X3) was tested, and the inhibition at 10 µM was > 50%.
